The record followed here is ChEMBL document CHEMBL1152999, “Synthesis and anti-HSV-1 evaluation of some pyrazoles and fused pyrazolopyrimidines” (2009).

In test [1] the test system is Human alphaherpesvirus 1. Kind of test: Antiviral activity against HSV1 infected in african green monkey Vero cells assessed as reduction in virus plaque formation at 10 ug per 10^5 cells by plaque infectivity assay. In kind it is functional. Also noted: scale not given: the % may be the effect or the level left.
Test [2] relates to Human alphaherpesvirus 1. The test can be described thus: Antiviral activity against HSV1 infected in african green monkey Vero cells assessed as reduction in virus plaque formation at 20 ug per 10^5 cells by plaque infectivity assay. On the set-up: scale not given: the % may be the effect or the level left. Format: functional.

Each structure is given as a SMILES string.

Regarding `N#Cc1cnn(-c2ncnc3sc4c(c23)-c2ccccc2CC4)c1N`, the Activity in test [1] worked out at 16.6%; in test [2] it was 0%.
With `CC(=O)OC[C@@H](OC(C)=O)[C@H](OC(C)=O)[C@@H](OC(C)=O)[C@H](OC(C)=O)c1nc2c3cnn(-c4ncnc5sc6c(c45)-c4ccccc4CC6)c3ncn2n1`, the Activity is recorded as 29% in test [1] and 57% in test [2].
Turning to `Nc1ncnc2c1cnn2-c1ncnc2sc3c(c12)-c1ccccc1CC3`, the Activity in test [1] came to 44.6%; in test [2], 0%.
Consider `CC(=O)Nc1c(C#N)cnn1-c1ncnc2sc3c(c12)-c1ccccc1CC3`, for which the Activity stood at 0% in test [1] and 67.6% in test [2].
Take `CC(=O)OC[C@@H](OC(C)=O)[C@H](OC(C)=O)[C@@H](OC(C)=O)[C@@H](/C=N/Nc1ncnc2c1cnn2-c1ncnc2sc3c(c12)-c1ccccc1CC3)OC(C)=O`: the results for the Activity in test [1] and in test [2] were 34% and 69%, respectively.
For the molecule `N#Cc1cnn(-c2ncnc3sc4c(c23)-c2ccccc2CC4)c1NC=O`, the results for the Activity in test [1] and in test [2] were 28.5% and 48%, respectively.
Take `OC[C@@H](O)[C@H](O)[C@@H](O)[C@H](O)/C=N/Nc1ncnc2c1cnn2-c1ncnc2sc3c(c12)-c1ccccc1CC3`: the Activity worked out at 43% in test [1] and 99% in test [2].
For `Cc1nc2c(cnn2-c2ncnc3sc4c(c23)-c2ccccc2CC4)c(=O)[nH]1`, the results for the Activity in test [1] and in test [2] were 44.4% and 0%, respectively.
Taken in the same sequence, the figures for `NNc1ncnc2c1cnn2-c1ncnc2sc3c(c12)-c1ccccc1CC3` were 56% and 0%.
With `O=c1[nH]cnc2c1cnn2-c1ncnc2sc3c(c12)-c1ccccc1CC3`, the values for the Activity in test [1] and in test [2] were 47.7% and 0%, respectively.
For the molecule `Nc1nc2c(ncn2COCCO)c(=O)[nH]1` [ACYCLOVIR], the results for the Activity in test [1] and in test [2] were 12% and 28%, respectively.
